Results as given in patent publication US20130317215A1, “STABLE SYNTHETIC INTERMEDIATE AND METHOD FOR MANUFACTURING SAME” (KYORIN PHARMACEUTICAL CO., LTD., priority 2010, published 2013).
“Also recorded” adds a separate entry of the source.

Columns and labels:
[1] = Change in physical properties during storage at room temperature (Test Example 1); assay type: physicochemical; settings: for Physical properties, after 10 weeks: sealed in a glass bottle, stored at room temperature for 10 weeks
Excerpt: The compound (5) was sealed in a glass bottle and stored at room temperature for 10 weeks. The compound (6) was sealed in a glass bottle and stored at room temperature for 19 months.

[2] = Storage stability at room temperature, chemical purity by HPLC (Test Example 2); assay type: physicochemical
Method: The compounds (5) and (6) were each sealed in a glass bottle and stored at room temperature. At this time, the chemical purity of each compound was measured. After 6 weeks of storage and after 10 weeks of storage, the compound (5) was measured. After 19 months of storage, the compound (6) was measured. The chemical purity was represented by proportions of each compound and a degraded substance (compound (8)), calculated from area ratios measured by HPLC. HPLC measurement conditions are shown below. The chemical purity of the compound (6) was calculated on the basis of the peak of the compound (5).
Measurement wavelength: 220 nm
Column: TSKgel Octyl-80Ts, 4.6 mm I.D.×150 mm
Column temperature: 40° C.
Mobile phase A: acetonitrile
Mobile phase B: diluted phosphoric acid (1→1,000)

Physical properties, in synthesis ([1]; compound (5), before storage): WHITE POWDER
Physical properties, after 10 weeks [1]: YELLOW SEMI-SOLID
Proportion of the compound degraded ([2]; after 10 weeks of storage at room temperature): ≥ 50%
HPLC purity, peak Compound (5), after 6 weeks ([2]; sealed glass bottle, room temperature, 6 weeks, HPLC area ratio): 94.1%
HPLC purity, peak Compound (5), after 10 weeks ([2]; sealed glass bottle, room temperature, 10 weeks, HPLC area ratio): 38.4%
Structure (SMILES): CCc1cc(OC)cc(N)c1C(=O)O [Compound (5)]
Physical properties, after 10 weeks ([1]; listed as compound (5)): the physical properties were changed; also recorded: yellow semi-solid
